According to patent US9149540B2, “Polymer conjugate of folic acid or folic acid derivative” (Nippon Kayaku Kabushiki Kaisha, priority 2008, dated 2015):
Several values for one entry are separate records, joined by “and”; a condition that tells them apart may be missing. Equal entries are not always repeated.

Legend:
[1] = test system: rat collagen-induced arthritis model; assay: Anti-inflammatory evaluation 2 using rat collagen-induced arthritis model (Test Example 4); format: in vivo; conditions: 8th, 15th and 22nd day after sensitization
Protocol: The test was carried out in the same manner as in Test Example 3. […] The groups administered with 1.00 mg/kg (convert to dose of MTX) and 1.25 mg/kg (convert to dose of MTX) of MTX_G-40, and the group administered with 2.5 mg/kg of MTX were administered with the drug through the tail vein on the 1st day, 8th day, 15th day and 22nd day after sensitization.

[2] = test system: Mouse colon cancer Colon 26; assay: Antitumor effect on mouse colon cancer Colon 26-transplanted mouse; format: in vivo; conditions: for Relative tumor volume mean ± SD: 12th day after initiation of administration, day of initiation = 1.0; for suppression of tumor growth (in words) / dose dependence of tumor growth suppression (in words): single administration; for dose dependence of tumor growth suppression (in words): doses of Table 1
Protocol: Mouse colon cancer Colon 26 cells subcutaneously subcultured in a BALB/c mouse were prepared in the form of a block which measured about 2 mm on each side, and the block was subcutaneously transplanted on the dorsal part of a CDF1 mouse using a trocar. […] The tumor volume on the day of initiation of administration was taken as 1.0, and while taking the 12th day after the initiation of administration as the day of determination, the relative tumor volume of each administered group was determined. The dose in the compounds of the present invention is converted to that of MTX.

[3] = test system: rat collagen-induced arthritis model; assay: Anti-inflammatory evaluation using rat collagen-induced arthritis model (Test Example 3)
[4] = once 25 mg/kg in terms of MTX, tail vein
[5] = once 25 mg/kg in terms of MTX, tail vein, 25 mg/kg
[6] = once 50 mg/kg in terms of MTX, tail vein
[7] = 15 mg/kg/day tail vein, 5 successive days (total 75 mg/kg)

PEG-Asp40(γ-Tyramine-MTX)-Ac [MTX_G-40]
anti-inflammatory effect, arthritis score of left footpad (FIG. 3) ([1]; 1.00 mg/kg (dose of MTX) tail vein on 1st): further delayed the time of onset of inflammation compared to MTX | anti-inflammatory effect, arthritis score of left footpad (FIG. 3) ([1]; 1.25 mg/kg (dose of MTX) tail vein on 1st): completely suppressed the onset of inflammation for the 28 days of monitoring

PEG-Asp44(γ-Tyramine-MTX)-Ac [MTX_G-44]
Toxicity (death/n) ([2]; once 12.5 mg/kg in terms of MTX, tail vein): 0/3 | Relative tumor volume mean ± SD ([2]; once 12.5 mg/kg in terms of MTX, tail vein, 12.5 mg/kg): 8.2 and 8.2 ± 1.0 | death of toxicity (in words) ([2]; once 25 mg/kg in terms of MTX): one animal died of toxicity | Toxicity (death/n) [2, 4]: 1/3 | Relative tumor volume mean ± SD [2, 5]: 2.3 and 2.3 ± 1.1 | Toxicity (death/n) [2, 6]: 1/3 | Relative tumor volume mean ± SD [2, 6]: 0.4 ± 0.1 | suppression of tumor growth (in words) [2]: strongly suppress the growth of tumor with a single administration | dose dependence of tumor growth suppression (in words) [2]: tumor growth is suppressed in a manner dependent on the amount of administration

PEG-Asp40(α-Tyramine-MTX)-Ac [MTX_A-40]
anti-inflammatory effect, arthritis score of left footpad (FIG. 2) ([3]; 2.5 mg/kg on 1st day, or 1.25 mg/kg on 1st and 8th day after sensitization, in terms of MTX, tail vein): delayed the time of onset of inflammation | Toxicity (death/n) [2, 4]: 0/3 | Relative tumor volume mean ± SD [2, 5]: 6.8 and 6.8 ± 0.7 | death of toxicity (in words) ([2]; once 50 mg/kg in terms of MTX): one animal died of toxicity | Toxicity (death/n) [2, 6]: 1/3 | Relative tumor volume mean ± SD ([2]; once 50 mg/kg in terms of MTX, tail vein, 50 mg/kg): 4.8 and 4.8 ± 2.8 | suppression of tumor growth (in words) [2]: strongly suppress the growth of tumor with a single administration | dose dependence of tumor growth suppression (in words) [2]: tumor growth is suppressed in a manner dependent on the amount of administration

CN(Cc1cnc2nc(N)nc(N)c2n1)c1ccc(C(=O)N[C@@H](CCC(=O)O)C(=O)O)cc1 [MTX, methotrexate, reference compound]
anti-inflammatory effect, arthritis score of left footpad (FIG. 3) ([1]; 2.5 mg/kg tail vein on 1st): delayed the time of onset of inflammation as compared with the control group | anti-inflammatory effect, arthritis score of left footpad (FIG. 2) ([3]; 2.5 mg/kg tail vein on 1st and 8th day after sensitization): no anti-inflammatory effects were observed | antitumor effect (in words) ([2]; 15 mg/kg for 5 successive days): an antitumor effect was not observed | Toxicity (death/n) [2, 7]: 0/3 | Relative tumor volume mean ± SD [2, 7]: 12.2 and 12.2 ± 8.1 | death of toxicity (in words) ([2]; 20 mg/kg for 5 successive days): all of the animals died of toxicity | Toxicity (death/n) ([2]; 20 mg/kg/day tail vein, 5 successive days (total 100 mg/kg)): 3/3
